In article PMC4806491, “The milk-derived fusion peptide, ACFP, suppresses the growth of primary human ovarian cancer cells by regulating apoptotic gene expression and signaling pathways” (BMC Cancer, 2016):
Positions of bridges follow the written chain, without caps; N, C: chain ends. Residues, ends and D or L forms follow the SMILES beside them.

Experiments:
[1] = test system: normal ovarian glandular epithelium cells (NOGECs); assay: WST-1 viability assay, general toxicity; assay type: cell-based, human; conditions: WST-1, compared with paclitaxel, Fig. 3b, cells from 7 patients
Protocol: Fresh primary ovarian tumor tissues that were assessed and classified as serous ovarian adenocarcinoma (III-IV grade) according to WHO criteria were collected from 53 ovarian cancer patients who underwent initial debulking surgery at the first affiliated hospital of Anhui Medical University between June 2012 and June 2014. All patients had not received adjuvant therapies, such as chemotherapy or radiotherapy, prior to surgery. For comparison, normal ovarian glandular epithelium cells (NOGECs) were cultured from fresh primary normal ovarian tissues harvested from 7 patients with uterine fibromas, which were confirmed as negative for any neoplastic disease by pathological examination. […] To determine purity, cells were analyzed using immunofluorescence of cytokeratin 7 (for ovarian cancer cells) or cytokeratin 19 (for normal ovarian epithelium cells).
Primary ovarian cancer cells were seeded into 96-well plates in sextuplicate at a starting density of 5 × 10^3 cells/well and incubated with ACFP at the concentrations: 0 (as control), 5 × 10^−6, 5 × 10^−5, 5 × 10^−4, 5 × 10^−3, 5 × 10^−2, 5 × 10^−1 and 5 g/L for 24, 48 and 72 h, respectively. […] Cell viability was later measured using the WST-1 (water-soluble tetrazolium 1) cell viability and cytotoxicity assay kit (Beyotime, Haimen, China) according to the manufacturer’s instructions. […]

[2] = test system: primary ovarian cancer cells; assay: Western blot of Bcl-xl, Bax, Akt, Caspase-3, CDC25C and CyclinB1 proteins; assay type: cell-based, human; conditions: 48 h
Protocol: Proteins were isolated from primary ovarian cancer cells harvested after ACFP treatment, separated by SDS-PAGE and transferred to PVDF membrane using the standard protocol. After blocking with 5 % (w/v) dry skim milk, membranes were incubated with primary antibodies (mouse monoclonal Bcl-xl, Bax, Akt, Caspase-3, CDC25C, CyclinB1 and β-Actin antibodies, 1:1000 dilution) according to the manufacturer’s instructions and later incubated with a horseradish peroxidase conjugated secondary antibody (goat anti-mouse IgG, 1:8000 dilution). The proteins were detected with the enhanced chemiluminescence (ECL) system followed by exposure to X-ray film. The β-Actin was used as a loading control. Two independent experiments were performed. Digital images were captured by Gel DocTM gel documentation system (Bio-Rad, USA) and intensities were quantified using Quantity-One software version 4.62 (Bio-Rad, USA).

[3] = solubility in water and octanol; assay type: physicochemical

Structure (SMILES): CC[C@H](C)[C@@H]1NC(=O)[C@H](CO)NC(=O)[C@@H]2CCCN2C(=O)[C@H](C)NC(=O)CNC(=O)[C@H](CC(C)C)NC(=O)[C@H](CCCCN)NC(=O)[C@H](CCCCN)NC(=O)[C@H](CCSC)NC(=O)[C@H](CCCNC(=N)N)NC(=O)[C@H](Cc2c[nH]c3ccccc23)NC(=O)[C@H](CCC(N)=O)NC(=O)[C@H](Cc2c[nH]c3ccccc23)NC(=O)[C@H](CCCNC(=N)N)NC(=O)[C@H](CCCNC(=N)N)NC(=O)[C@@H](NC(=O)[C@H](CCCCN)NC(=O)[C@@H](N)Cc2ccccc2)CSSC[C@@H](C(=O)N[C@H](C(=O)N[C@@H](CCCNC(=N)N)C(=O)N[C@@H](CCCNC(=N)N)C(=O)N[C@@H](C)C(=O)N[C@@H](Cc2ccccc2)C(=O)NCC(=O)NCC(=O)NCC(=O)NCC(=O)N[C@@H](CO)C(=O)N2CCC[C@H]2C(=O)NCC(=O)N2CCC[C@H]2C(=O)N[C@H](C(=O)N2CCC[C@H]2C(=O)N[C@@H](CC(N)=O)C(=O)O)[C@@H](C)CC)C(C)C)NC(=O)[C@H]([C@@H](C)O)NC1=O [ACFP] (H-FKCRRWQWRMKKLGAPSITCVRRAFGGGGSPGPIPN-OH; disulfide 3-20; N-terminus and C-terminus assumed)
- cytotoxicity toward normal primary ovarian cells [1]: little or no cytotoxicity
- protein levels of Bax and Caspase-3 ([2]; different concentrations, compared to control-treated group): elevated
- protein levels of Bcl-xl, Akt, CDC25C and CyclinB1 ([2]; increasing drug concentration): gradually decreased
- solubility in fat (octanol) [3]: slightly soluble
- solubility in water [3]: easily dissolve
